Assay results reported in patent US20090227556A1, “RECEPTOR TYROSINE KINASE INHIBITORS COMPRISING PYRIDINE AND PYRIMIDINE DERIVATIVES” (Eisai R&D Management Co., Ltd., priority 2008, published 2009).

Biological target: T1, VEGFR-2 tyrosine kinase (His6-VEGFR-2, cytoplasmic domain) (Homo sapiens, UniProt P35968)
T1 construct: made in house; host or cells: Sf9 insect cells (baculovirus, pFastBac-HT)
Experiment: Inhibitory activity on VEGFR-2 tyrosine kinase (HTRF)
Type: biochemical
Details: biotin-poly(GT) substrate
Description: Cytoplasmic domain of VEGFR-2 (Genbank Accession No. L04947) is a 1.7 kb DNA fragment starting from lysine 791 and contains a stop codon, as described by Tarman et al. (Oncogene, 6(9), 1677-1683, 1991). This DNA fragment was isolated from a human placental cDNA library (obtained from Clontech Laboratories, Inc.) with two primers (obtained from TaKaRa Ex Taq™ Kit, TaKaRa) using a PCR method. This DNA fragment was cloned into a baculovirus transplace vector (pFastBac™-HT (obtained from GIBCO BRL)), to obtain a recombinant construct. An insect cell (Spodoptera frugiperda 9 (Sf9)) was transfected with it, and a VEGFR-2 recombinant baculovirus solution was prepared (preparation of the recombinant baculovirus can be found in a standard textbook (Bac-to-Bac Baculovirus Expression System (GIBCO BRL)).
To Sf9 cells (3×10^8 cells) suspended in a SF-90011 culture medium containing 2% FBS (obtained from Invitrogen Corp.), the above mentioned recombinant VEGFR-2 baculovirus solution (4 ml) was added and incubated with shaking at 27° C. for 48 hours. The recombinant VEGFR-2 baculovirus-infected cell culture was centrifuged at 4° C. at 1000 rpm for 5 minutes, and the supernatant was removed. The precipitated infected cells were suspended in 80 ml of ice-cold PBS, the suspension was centrifuged at 4° C. at 1000 rpm for 5 minutes, and the supernatant was removed. The precipitated infected cells were suspended in 40 ml of ice-cold Lysis Buffer (50 mM Tris-HCl (pH 8.5), 5 mM 2-mercaptoethanol, 100 mM KCl, 1 mM PMSF, and 1% (v/v) NP-40). This suspension was centrifuged at 4° C. at 12,000 rpm for 30 min to obtain a supernatant.
This supernatant was added to a Ni-NTA agarose column (3 ml, obtained from Qiagen) which had been equilibrated with 30 ml of Buffer A (20 mM Tris-HCl (pH 8.5), 5 mM 2-mercaptoethanol, 500 mM KCl, 20 mM imidazole, and 10% (v/v) glycerol). This column was washed sequentially with 30 ml of Buffer A, 6 ml of Buffer B (20 mM Tris-HCl (pH 8.5), 5 mM 2-mercaptoethanol, 1M KCl, and 10% (v/v) glycerol), and 6 ml of Buffer A. Then, to this column, 6 ml of Buffer C (20 mM Tris-HCl (pH 8.5), 5 mM 2-mercaptoethanol, 100 mM KCl, 100 mM imidazole, and 10% (v/v) glycerol) was added to obtain an eluate. This eluate was poured into a dialysis membrane (obtained from Spectrum Laboratories) and dialyzed with 1 liter of dialysis buffer (20 mM Tris-HCl (pH 7.5), 10% (v/v) glycerol, 1 mM DTT, 0.1 mM Na3VO4, 0.1 mM EGTA) at 4° C. overnight and stored at −80° C. until use. After the dialysis, a part of the eluate was subjected to a SDS electrophoresis, and the recombinant protein (His 6-VEGFR-2, a cytoplasmic domain of VEGFR-2 fused with 6 histidine residues on its N-terminus) detected at about 100 kDa Mw in Coomassie Brilliant Blue staining was subjected to protein quantification using BSA (obtained from Sigma Co. Ltd.) as a standard.
In each well of a 96-well round bottom plate (obtained from NUNC, product number 163320), 10 μl of a solution for kinase reaction (200 mM Hepes (pH 7.4), 80 mM MgCl2, 16 mM MnCl2, 2 mM Na3VO4), 250 ng of biotin-conjugated poly (Glu 4: Tyr 1) (biotin-poly (GT) obtained from Nihon Schering K.K.) (6 μl of 1/15 diluted solution with distilled water), 15 ng of His6-VEGFR-2 (10 μl of a 1/240 diluted solution with a 0.4% BSA solution), and a test substance solution in dimethyl sulfoxide (4 μl of 1/100 dilution with 0.1% BSA) were added to make a total volume of 30 μl. To them, 10 μl of 4 μM ATP (obtained from Sigma Co. Ltd.) diluted with distilled water was added, and the resultant was incubated for 10 minutes at 30° C., followed by addition of 10 μl of 500 mM EDTA (pH 8.0) (obtained from Wako Pure Chemical Industries, Ltd.) to obtain a kinase reaction solution.
To detect tyrosine-phosphorylated biotin-poly (GT), the Homogenous Time-Resolved Fluorescence (HTRF) method was used (Analytical Biochemistry, 269, 94-104, 1999). […]

T1 sequence (P35968 786-1356 limits assumed): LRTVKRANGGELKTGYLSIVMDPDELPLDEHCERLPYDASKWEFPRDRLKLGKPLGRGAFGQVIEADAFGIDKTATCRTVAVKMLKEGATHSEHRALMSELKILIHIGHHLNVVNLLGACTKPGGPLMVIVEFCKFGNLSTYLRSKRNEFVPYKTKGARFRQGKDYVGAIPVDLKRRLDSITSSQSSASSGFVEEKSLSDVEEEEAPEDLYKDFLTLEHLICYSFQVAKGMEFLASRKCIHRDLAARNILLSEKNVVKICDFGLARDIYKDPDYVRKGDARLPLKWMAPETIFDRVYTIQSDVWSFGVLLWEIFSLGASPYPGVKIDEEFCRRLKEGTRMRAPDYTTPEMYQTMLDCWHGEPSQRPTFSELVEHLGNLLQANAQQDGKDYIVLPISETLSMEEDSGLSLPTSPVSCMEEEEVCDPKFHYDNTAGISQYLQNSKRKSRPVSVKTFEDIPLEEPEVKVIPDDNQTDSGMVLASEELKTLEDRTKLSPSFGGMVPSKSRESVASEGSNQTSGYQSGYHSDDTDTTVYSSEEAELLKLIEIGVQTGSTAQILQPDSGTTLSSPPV

| IC50 [nM] | Structure (SMILES) |
| --- | --- |
| 10 | O=C(Nc1cc(Oc2cc(F)c(NC(=O)C3(C(=O)Nc4ccc(F)cc4)CC3)cc2F)ccn1)N1CC(CO)C1 [N-(2,5-Difluoro-4-{[2-({[3-(hydroxymethyl)azetidin-1-yl]carbonyl}amino)pyridin-4-yl]oxy}phenyl)-N′-(4-fluorophenyl)cyclopropane-1,1-dicarboxamide] |
| 100 | CN1CCN(C2CCN(C(=O)Nc3cc(Oc4cc(F)c(NC(=O)C5(C(=O)Nc6ccc(F)cc6)CC5)cc4F)ccn3)CC2)CC1 [N-(2,5-Difluoro-4-{[2-({[4-(4-methylpiperazin-1-yl)piperidin-1-yl]carbonyl}amino)pyridin-4-yl]oxy}phenyl)-N′-(4-fluorophenyl)cyclopropane-1,1-dicarboxamide] |
| 95 | CN1CCC(N(C)C(=O)Nc2cc(Oc3cc(F)c(NC(=O)C4(C(=O)Nc5ccc(F)cc5)CC4)cc3F)ccn2)CC1 [N-(2,5-Difluoro-4-{[2-({[methyl(1-methylpiperidin-4-yl)amino]carbonyl}amino)pyridin-4-yl]oxy}phenyl)-N′-(4-fluorophenyl)cyclopropane-1,1-dicarboxamide] |
| 59 | O=C(Nc1cc(Oc2ccc(NC(=O)C3(C(=O)Nc4ccc(F)cc4)CC3)c(F)c2)ccn1)N1CCC1 [N-[4-({2-[(Azetidin-1-ylcarbonyl)amino]pyridin-4-yl}oxy)-2-fluorophenyl]-N′-(4-fluorophenyl)cyclopropane-1,1-dicarboxamide] |
| 9.5 | O=C(Nc1cc(Oc2cc(F)c(NC(=O)C3(C(=O)Nc4ccc(F)cc4)CC3)cc2F)ccn1)N1CC(O)C1 [N-{2,5-Difluoro-4-[(2-{[(3-hydroxyazetidin-1-yl)carbonyl]amino}pyridin-4-yl)oxy]phenyl}-N′-(4-fluorophenyl)cyclopropane-1,1-dicarboxamide] |
